Melting point data for 14 compounds are collected here from US8410177B2, “Curcumin derivatives” (Indian Institute of Technology Bombay, priority 2009, dated 2013).

As a reminder, the melting point is the temperature of the solid-liquid transition.

In turn, `COc1ccc(/C=C/C(=O)C2C(=O)CC(c3ccc(OC)cc3)[C@H]([N+](=O)[O-])C2c2ccc(OC)cc2)cc1` (some centres unmarked) [IX-1, 3,5-Bis(4-Methoxyphenyl)-2-((E)-3-(4-Methoxyphenyl)acryloyl)-4-Nitrocyclohexanone] registered a melting point of 200 to 202 °C.
In turn, `COc1ccc(/C=C/C(=O)C2C(=O)C[C@H](c3ccc(OC)cc3)[C@H]([N+](=O)[O-])[C@H]2c2ccc(OC)c(OC)c2)cc1` (some centres unmarked) [IX-2, 3-(3,4-Dimethoxyphenyl)-5-(4-Methoxyphenyl)-2-((E)-3-(4-Methoxyphenyl)acryloyl)-4-Nitrocyclohexanone] registered a melting point of 126 to 128 °C.
The compound `COc1ccc(/C=C/C(=O)C2C(=O)C[C@H](c3ccc(OC)cc3)[C@H]([N+](=O)[O-])[C@H]2c2ccccc2)cc1` (some centres unmarked) [IX-3, 5-(4-Methoxyphenyl)-2-((E)-3-(4-Methoxyphenyl)acryloyl)-4-Nitro-3-Phenylcyclohexanone] registered a melting point of 164 to 165 °C.
As for `COc1ccc(/C=C/C(=O)C2C(=O)C[C@H](c3ccc(OC)cc3)[C@H]([N+](=O)[O-])C2c2ccc(Cl)cc2)cc1` (some centres unmarked) [IX-4, 3-(4-Chlorophenyl)-5-(4-Methoxyphenyl)-2-((E)-3-(4-Methoxyphenyl)acryloyl)-4-Nitrocyclohexanone], the figure is 156 to 158 °C; as for `COc1ccc(/C=C/C(=O)C2C(=O)C[C@H](c3ccc(OC)cc3)[C@H]([N+](=O)[O-])[C@H]2c2cccs2)cc1` (some centres unmarked) [IX-5, 5-(4-Methoxyphenyl)-2-((E)-3-(4-Methoxyphenyl)acryloyl)-4-Nitro-3-(Thiophen-2-yl)cyclohexanone], 160 to 162 °C.
Compound `COc1ccc(/C=C/C(=O)C2C(=O)C[C@H](c3ccc(OC)cc3)[C@H]([N+](=O)[O-])[C@H]2c2ccc3c(c2)OCO3)cc1` (some centres unmarked) [IX-6, 3-(Benzo[a][1,3]dioxol-5-yl)-5-(4-Methoxyphenyl)-2-((E)-3-(4-Methoxyphenyl)acryloyl)-4-Nitrocyclohexanone] displayed a melting point of 154 to 156 °C.
In turn, `COc1ccc(/C=C/C(=O)C2C(=O)C[C@H](c3ccc(OC)cc3)[C@H]([N+](=O)[O-])[C@H]2c2ccco2)cc1` (some centres unmarked) [IX-7, 3-(Furan-2-yl)-5-(4-Methoxyphenyl)-2-((E)-3-(4-Methoxyphenyl)acryloyl)-4-Nitrocyclohexanone] returned a melting point of 192 °C.
For `COc1ccc(/C=C/C(=O)C2C(=O)C[C@H](c3ccc(OC)cc3)[C@H]([N+](=O)[O-])[C@H]2/C=C/c2ccccc2)cc1` (some centres unmarked) [IX-9, 5-(4-Methoxyphenyl)-2-((E)-3-(4-Methoxyphenyl)acryloyl)-4-nitro-3-styrylcyclohexanone], the melting point was 88 to 90 °C.
With `COc1ccc(C2C(C(=O)/C=C/c3ccc(OC)c(OC)c3)C(=O)C[C@H](c3ccc(OC)c(OC)c3)[C@@H]2[N+](=O)[O-])cc1` (some centres unmarked) [IX-10, 5-(3,4-dimethoxyphenyl)-3-(4-methoxyphenyl)-2-((E)-3-(3,4-dimethoxyphenyl)acryloyl)-4-Nitrocyclohexanone], the melting point fell in the range of 158 to 160 °C.
`COc1ccc([C@H]2C(C(=O)/C=C/c3ccc(O)c(OC)c3)C(=O)C[C@H](c3ccc(O)c(OC)c3)[C@@H]2[N+](=O)[O-])cc1` (some centres unmarked) [IX-11, 5-(4-hydroxy-3-methoxyphenyl)-2-((E)-3-(4-hydroxy-3-methoxyphenyl)acryloyl)-3-(4-methoxyphenyl)-4-nitrocyclohexanone] gave a melting point of 83 to 85 °C.
Next, `COc1ccc([C@H]2C(C(=O)/C=C/c3ccccc3)C(=O)C[C@H](c3ccccc3)[C@@H]2[N+](=O)[O-])cc1` (some centres unmarked) [IX-12, 3-(4-methoxyphenyl)-4-nitro-5-phenyl-2-((E)-3-phenylacryloyl)cyclohexanone]: 108 to 110 °C; `COc1ccc(/C=C/C(=O)C2C(=O)C[C@H](c3ccc(OC)cc3)[C@H]([N+](=O)[O-])[C@H]2C2CCCCC2)cc1` (some centres unmarked) [IX-14, 3-cyclohexyl-5-(4-methoxyphenyl)-2-((E)-3-(4-methoxyphenyl)acryloyl)-4-nitrocyclohexanone]: 203 to 205 °C; `CCCC[C@H]1C(C(=O)/C=C/c2ccc(OC)cc2)C(=O)C[C@H](c2ccc(OC)cc2)[C@@H]1[N+](=O)[O-]` (some centres unmarked) [IX-15, 3-butyl-5-(4-methoxyphenyl)-2-((E)-3-(4-methoxyphenyl)acryloyl)-4-nitrocyclohexanone]: 127 to 129 °C.
For the compound `COc1ccc([C@H]2C(C(=O)/C=C/c3ccc(OCc4ccccc4)c(OC)c3)C(=O)C[C@H](c3ccc(OCc4ccccc4)cc3)[C@@H]2[N+](=O)[O-])cc1` (some centres unmarked) [IX-16, 2-((E)-3-(4-(benzyloxy)-3-methoxyphenyl)acryloyl)-5-(4-(benzyloxy)phenyl)-3-(4-methoxyphenyl)-4-nitrocyclohexanone], the melting point fell in the range of 76 to 78 °C.
